Experimental data reported in paper PMC5218480 (PLoS ONE, 2017).

Tested on: MV-4-11 cells
Assay: Gene expression microarray analysis (Affymetrix PrimeView) and GSEA
Format: cell-based, human
Set-up: RFU PODN (11730768_x_at) / Fold change /veh PODN (11730768_x_at) / RFU LINC00158 (11744669_a_at) / Fold change /veh LINC00158 (11744669_a_at) / RFU DUSP10 (11751237_a_at) / Fold change /veh DUSP10 (11751237_a_at) / RFU ID3 (11757404_x_at) / Fold change /veh ID3 (11757404_x_at) / RFU PLEKHG5 (11737974_s_at) / Fold change /veh PLEKHG5 (11737974_s_at) / RFU LRRC4B (11730491_at) / Fold change /veh LRRC4B (11730491_at) / RFU GIMAP4 (11747438_a_at) / Fold change /veh GIMAP4 (11747438_a_at) / RFU KRT8 (11758183_x_at) / Fold change /veh KRT8 (11758183_x_at) / RFU CNN1 (11734310_a_at) / Fold change /veh CNN1 (11734310_a_at) / RFU VPS37D (11726825_at) / Fold change /veh VPS37D (11726825_at) / RFU C10orf10 (11716522_x_at) / Fold change /veh C10orf10 (11716522_x_at) / RFU KIR2DL2 /// KIR2DL4 /// KIR2DL5A /// KIR2DL5B /// KIR2DS1 /// KIR2DS2 /// KIR2DS3 /// KIR2DS4 /// KIR3DL3 /// KIR3DL3 /// KIR3DS1 (11738374_at) / Fold change /veh KIR2DL2 /// KIR2DL4 /// KIR2DL5A /// KIR2DL5B /// KIR2DS1 /// KIR2DS2 /// KIR2DS3 /// KIR2DS4 /// KIR3DL3 /// KIR3DL3 /// KIR3DS1 (11738374_at) / RFU C1QL1 (11718748_at) / Fold change /veh C1QL1 (11718748_at) / RFU TMPRSS4 (11747572_a_at) / Fold change /veh TMPRSS4 (11747572_a_at) / RFU HAMP (11756126_x_at) / Fold change /veh HAMP (11756126_x_at) / RFU RNFT2 (11725882_a_at) / Fold change /veh RNFT2 (11725882_a_at) / RFU NR4A2 (11747474_a_at) / Fold change /veh NR4A2 (11747474_a_at) / RFU ABCC12 (11746883_a_at) / Fold change /veh ABCC12 (11746883_a_at) / RFU TMEM136 (11760407_x_at) / Fold change /veh TMEM136 (11760407_x_at) / RFU CLDN22 /// WWC2 (11732394_at) / Fold change /veh CLDN22 /// WWC2 (11732394_at) / RFU HLA-DPB1 (11760878_x_at) / Fold change /veh HLA-DPB1 (11760878_x_at) / RFU SPINT1 (11716480_a_at) / Fold change /veh SPINT1 (11716480_a_at) / RFU GAP43 (11754022_s_at) / Fold change /veh GAP43 (11754022_s_at) / RFU A4GNT (11735810_at) / Fold change /veh A4GNT (11735810_at) / RFU PRB3 (11715151_x_at) / Fold change /veh PRB3 (11715151_x_at) / RFU TUBB4B (11761932_at) / Fold change /veh TUBB4B (11761932_at) / RFU CAPN14 (11732068_a_at) / Fold change /veh CAPN14 (11732068_a_at) / RFU TMCC2 (11721928_a_at) / Fold change /veh TMCC2 (11721928_a_at) / RFU IRGQ (11745062_a_at) / Fold change /veh IRGQ (11745062_a_at) / RFU FAM174B (11720279_a_at) / Fold change /veh FAM174B (11720279_a_at) / RFU TMPRSS4 (11748680_a_at) / Fold change /veh TMPRSS4 (11748680_a_at) / RFU FAM212B (11763350_a_at) / Fold change /veh FAM212B (11763350_a_at) / RFU PLEKHG5 (11743358_a_at) / Fold change /veh PLEKHG5 (11743358_a_at) / RFU ZSCAN30 (11745921_a_at) / Fold change /veh ZSCAN30 (11745921_a_at) / RFU CMKLR1 (11741424_a_at) / Fold change /veh CMKLR1 (11741424_a_at) / RFU LOC101060620 /// MAPK8IP1 (11723275_at) / Fold change /veh LOC101060620 /// MAPK8IP1 (11723275_at) / RFU SPTSSB (11747773_x_at) / Fold change /veh SPTSSB (11747773_x_at) / RFU PRSS12 (11739890_at) / Fold change /veh PRSS12 (11739890_at) / RFU BIN1 (11741810_x_at) / Fold change /veh BIN1 (11741810_x_at) / RFU WNT11 (11732464_a_at) / Fold change /veh WNT11 (11732464_a_at) / RFU C10orf10 (11716521_a_at) / Fold change /veh C10orf10 (11716521_a_at) / RFU C5orf56 (11738089_at) / Fold change /veh C5orf56 (11738089_at) / RFU CYB561 (11721691_x_at) / Fold change /veh CYB561 (11721691_x_at) / RFU ANKRD19P (11752326_a_at) / Fold change /veh ANKRD19P (11752326_a_at) / RFU OR2T12 /// OR2T33 /// OR2T8 (11738714_s_at) / Fold change /veh OR2T12 /// OR2T33 /// OR2T8 (11738714_s_at) / RFU VCAN (11748164_a_at) / Fold change /veh VCAN (11748164_a_at) / RFU JSRP1 (11732532_at) / Fold change /veh JSRP1 (11732532_at) / RFU KRTAP10-11 (11738290_x_at) / Fold change /veh KRTAP10-11 (11738290_x_at) / RFU MYO3A (11730013_a_at) / Fold change /veh MYO3A (11730013_a_at) / RFU EBF3 (11725865_a_at) / Fold change /veh EBF3 (11725865_a_at) / RFU CAMK2N1 (11719241_x_at) / Fold change /veh CAMK2N1 (11719241_x_at) / RFU C5orf56 (11738088_a_at) / Fold change /veh C5orf56 (11738088_a_at) / RFU OLFML3 (11715873_a_at) / Fold change /veh OLFML3 (11715873_a_at) / RFU LOC100653217 /// NTM (11731650_a_at) / Fold change /veh LOC100653217 /// NTM (11731650_a_at) / RFU MAPK11 (11762145_a_at) / Fold change /veh MAPK11 (11762145_a_at) / RFU FIZ1 (11724087_x_at) / Fold change /veh FIZ1 (11724087_x_at) / RFU OASL (11726364_x_at) / Fold change /veh OASL (11726364_x_at) / RFU SOX15 (11748057_x_at) / Fold change /veh SOX15 (11748057_x_at) / RFU CD79A (11719716_a_at) / Fold change /veh CD79A (11719716_a_at) / RFU HIST1H1D (11736915_at) / Fold change /veh HIST1H1D (11736915_at) / RFU CASKIN2 (11723855_a_at) / Fold change /veh CASKIN2 (11723855_a_at) / RFU LOC730098 (11760151_x_at) / Fold change /veh LOC730098 (11760151_x_at) / RFU OR4N2 (11742367_at) / Fold change /veh OR4N2 (11742367_at) / RFU PRRT2 (11749266_a_at) / Fold change /veh PRRT2 (11749266_a_at) / RFU SNX32 (11753110_a_at) / Fold change /veh SNX32 (11753110_a_at) / RFU CDHR5 (11726645_a_at) / Fold change /veh CDHR5 (11726645_a_at) / RFU RCAN1 (11760418_a_at) / Fold change /veh RCAN1 (11760418_a_at) / RFU FAM167A (11723789_a_at) / Fold change /veh FAM167A (11723789_a_at) / RFU FAM26E (11764081_at) / Fold change /veh FAM26E (11764081_at) / RFU ISYNA1 (11749810_s_at) / Fold change /veh ISYNA1 (11749810_s_at) / RFU ACY1 (11761880_at) / Fold change /veh ACY1 (11761880_at) / RFU 11764098_at / Fold change /veh 11764098_at / RFU SAMD14 (11745864_x_at) / Fold change /veh SAMD14 (11745864_x_at) / RFU NPB (11741838_a_at) / Fold change /veh NPB (11741838_a_at) / RFU TMPRSS6 (11731388_a_at) / Fold change /veh TMPRSS6 (11731388_a_at) / RFU KRTAP10-2 (11738614_at) / Fold change /veh KRTAP10-2 (11738614_at) / RFU ARHGAP8 /// PRR5-ARHGAP8 (11727945_x_at) / Fold change /veh ARHGAP8 /// PRR5-ARHGAP8 (11727945_x_at) / RFU KRTAP5-7 /// NADSYN1 (11734609_at) / Fold change /veh KRTAP5-7 /// NADSYN1 (11734609_at) / RFU RASL12 (11751679_a_at) / Fold change /veh RASL12 (11751679_a_at) / RFU CDKN2B (11736163_a_at) / Fold change /veh CDKN2B (11736163_a_at) / RFU PRF1 (11729649_at) / Fold change /veh PRF1 (11729649_at) / RFU, ZNF638 /// ZNF638-IT1 / Fold change vs veh, ZNF638 /// ZNF638-IT1 / RFU, PANK3 / Fold change vs veh, PANK3 / RFU, SH3YL1 / Fold change vs veh, SH3YL1 / RFU, ZEB2 / Fold change vs veh, ZEB2 / RFU, NRIP1 / Fold change vs veh, NRIP1 / RFU, PTTG1IP / Fold change vs veh, PTTG1IP / RFU, CAPN2 / Fold change vs veh, CAPN2 / RFU, MED14 / Fold change vs veh, MED14 / RFU, SNORA58 / Fold change vs veh, SNORA58 / RFU, C1orf63 / Fold change vs veh, C1orf63 / RFU, LRRFIP1 / Fold change vs veh, LRRFIP1 / RFU, NDUFAF7 / Fold change vs veh, NDUFAF7 / RFU, SLC12A2 / Fold change vs veh, SLC12A2 / RFU, IBTK / Fold change vs veh, IBTK / RFU, ESF1 / Fold change vs veh, ESF1 / Fold change vs veh, TMEM50B / RFU, TAOK1 / Fold change vs veh, TAOK1 / RFU, ACBD3 / Fold change vs veh, ACBD3 / RFU, TMA16 / Fold change vs veh, TMA16 / RFU, RWDD3 / Fold change vs veh, RWDD3 / RFU, BCAT1 / Fold change vs veh, BCAT1 / RFU, EDEM3 / Fold change vs veh, EDEM3 / RFU, TMEM33 / Fold change vs veh, TMEM33 / RFU, WDR75 / Fold change vs veh, WDR75 / RFU, AHCTF1 / Fold change vs veh, AHCTF1 / RFU, TFRC / Fold change vs veh, TFRC / RFU, ZDHHC17 / Fold change vs veh, ZDHHC17 / RFU, NOM1 / Fold change vs veh, NOM1 / RFU, ARL8B / Fold change vs veh, ARL8B / RFU, ZBTB11 / Fold change vs veh, ZBTB11 / RFU, TAMM41 / Fold change vs veh, TAMM41 / RFU, KIAA1704 /// LOC100996395 / Fold change vs veh, KIAA1704 /// LOC100996395 / RFU, ING1 / Fold change vs veh, ING1 / RFU, TRMT61B / Fold change vs veh, TRMT61B / RFU, FUBP3 / Fold change vs veh, FUBP3 / RFU, TP53 / Fold change vs veh, TP53 / RFU, TNKS2 / Fold change vs veh, TNKS2 / RFU, ZFP14 / Fold change vs veh, ZFP14 / RFU, ACTR2 / Fold change vs veh, ACTR2 / RFU, PPP3R1 / Fold change vs veh, PPP3R1 / RFU, PIK3R1 / Fold change vs veh, PIK3R1 / RFU, HNRNPA1 / Fold change vs veh, HNRNPA1 / RFU, RNF170 / Fold change vs veh, RNF170 / RFU, ZNF28 / Fold change vs veh, ZNF28 / RFU, RNGTT / Fold change vs veh, RNGTT / RFU, OGT / Fold change vs veh, OGT / RFU, BRD1 / Fold change vs veh, BRD1 / RFU, MARS / Fold change vs veh, MARS / RFU, ZNF655 / Fold change vs veh, ZNF655 / RFU, FAHD1 / Fold change vs veh, FAHD1 / RFU, BDP1 / Fold change vs veh, BDP1 / RFU, LRRCC1 / Fold change vs veh, LRRCC1 / RFU, ARID1A / Fold change vs veh, ARID1A / RFU, ZNF146 / Fold change vs veh, ZNF146 / RFU, ZNF330 / Fold change vs veh, ZNF330 / RFU, GPN3 / Fold change vs veh, GPN3 / RFU, C9orf123 / Fold change vs veh, C9orf123 / RFU, N4BP2L2 / Fold change vs veh, N4BP2L2 / RFU, ARFIP1 / Fold change vs veh, ARFIP1 / RFU, FAM179B / Fold change vs veh, FAM179B / RFU, BCL10 / Fold change vs veh, BCL10 / RFU, UHRF1BP1L / Fold change vs veh, UHRF1BP1L / RFU, BET1 / Fold change vs veh, BET1 / RFU, CNOT2 / Fold change vs veh, CNOT2 / RFU, ZNF268 / Fold change vs veh, ZNF268 / Fold change vs veh, ZNF507 / RFU, DGCR2 / Fold change vs veh, DGCR2 / RFU, WDSUB1 / Fold change vs veh, WDSUB1 / Fold change vs veh, HSP90B1 /// MIR3652 / RFU, ADSS / Fold change vs veh, ADSS / RFU, GK / Fold change vs veh, GK / RFU, ZNF148 / Fold change vs veh, ZNF148 / RFU, TAF9 / Fold change vs veh, TAF9 / RFU, SLC1A5 / Fold change vs veh, SLC1A5 / RFU, SLMO2 / Fold change vs veh, SLMO2 / RFU, ABCC4 / Fold change vs veh, ABCC4 / RFU, LOC101060439 /// RAP1B / Fold change vs veh, LOC101060439 /// RAP1B / RFU, RFX7 / Fold change vs veh, RFX7 / RFU, GTPBP10 / Fold change vs veh, GTPBP10 / RFU, CNEP1R1 / Fold change vs veh, CNEP1R1 / RFU, BIVM-ERCC5 /// ERCC5 / Fold change vs veh, BIVM-ERCC5 /// ERCC5 / RFU, ILF3 / Fold change vs veh, ILF3 / RFU 11762660_at / Fold change /veh 11762660_at / RFU VCAN (11757783_s_at) / Fold change /veh VCAN (11757783_s_at) / RFU DDX43 (11728927_at) / Fold change /veh DDX43 (11728927_at) / RFU KRT8 (11758188_x_at) / Fold change /veh KRT8 (11758188_x_at) / RFU NKD1 (11759106_at) / Fold change /veh NKD1 (11759106_at) / RFU SRD5A1 (11742802_a_at) / Fold change /veh SRD5A1 (11742802_a_at) / RFU TPSAB1 /// TPSB2 (11721975_s_at) / Fold change /veh TPSAB1 /// TPSB2 (11721975_s_at) / RFU GSTM3 (11746129_a_at) / Fold change /veh GSTM3 (11746129_a_at) / RFU IL23R (11737362_x_at) / Fold change /veh IL23R (11737362_x_at) / RFU TMEM51 (11727254_a_at) / Fold change /veh TMEM51 (11727254_a_at) / RFU PIWIL2 (11732686_x_at) / Fold change /veh PIWIL2 (11732686_x_at) / RFU ORM1 (11744905_x_at) / Fold change /veh ORM1 (11744905_x_at) / RFU CCDC152 (11743942_at) / Fold change /veh CCDC152 (11743942_at) / RFU ECM1 (11717891_a_at) / Fold change /veh ECM1 (11717891_a_at) / RFU IL23R (11748794_a_at) / Fold change /veh IL23R (11748794_a_at) / RFU TNFAIP8L3 (11732012_x_at) / Fold change /veh TNFAIP8L3 (11732012_x_at) / RFU MBOAT4 (11741988_at) / Fold change /veh MBOAT4 (11741988_at) / RFU 11764193_at / Fold change /veh 11764193_at / RFU TMEM53 (11763286_at) / Fold change /veh TMEM53 (11763286_at) / RFU MAGEB2 (11727129_at) / Fold change /veh MAGEB2 (11727129_at) / RFU TMEM200A (11744735_a_at) / Fold change /veh TMEM200A (11744735_a_at) / RFU CCDC152 (11751479_a_at) / Fold change /veh CCDC152 (11751479_a_at) / RFU FAM211A (11726209_a_at) / Fold change /veh FAM211A (11726209_a_at) / RFU RGS16 (11746705_a_at) / Fold change /veh RGS16 (11746705_a_at) / RFU VCAN (11755009_s_at) / Fold change /veh VCAN (11755009_s_at) / RFU RHOB (11743442_s_at) / Fold change /veh RHOB (11743442_s_at) / RFU RGS16 (11720943_a_at) / Fold change /veh RGS16 (11720943_a_at) / RFU RGS16 (11720944_at) / Fold change /veh RGS16 (11720944_at) / RFU, VPS4B / Fold change vs veh, VPS4B / RFU, CREB1 / Fold change vs veh, CREB1 / RFU, DNAJC13 / Fold change vs veh, DNAJC13 / RFU, GNAQ / Fold change vs veh, GNAQ / RFU, CDK5R1 / Fold change vs veh, CDK5R1 / RFU, ZRANB3 / Fold change vs veh, ZRANB3 / RFU, CUL4A / Fold change vs veh, CUL4A / RFU, CCNY / Fold change vs veh, CCNY / RFU, UFL1 / Fold change vs veh, UFL1 / RFU, COG3 / Fold change vs veh, COG3 / RFU, DIAPH2 / Fold change vs veh, DIAPH2 / RFU, SKA2 / Fold change vs veh, SKA2 / RFU, AFF3 / Fold change vs veh, AFF3 / RFU, LMF1 / Fold change vs veh, LMF1 / RFU, IPO11 / Fold change vs veh, IPO11 / RFU, DFFB / Fold change vs veh, DFFB / RFU, FOXP1 / Fold change vs veh, FOXP1 / RFU, CARD8 / Fold change vs veh, CARD8 / RFU, STRN3 / Fold change vs veh, STRN3 / RFU, ADK / Fold change vs veh, ADK / RFU, RASSF2 / Fold change vs veh, RASSF2 / RFU, WIPF1 / Fold change vs veh, WIPF1 / RFU, LARP1B / Fold change vs veh, LARP1B / RFU, RASA1 / Fold change vs veh, RASA1 / RFU, RB1 / Fold change vs veh, RB1 / RFU, PPFIA1 / Fold change vs veh, PPFIA1 / RFU, MAT2A / Fold change vs veh, MAT2A / RFU, CCT5 / Fold change vs veh, CCT5 / RFU, WDR92 / Fold change vs veh, WDR92 / RFU, CUX1 / Fold change vs veh, CUX1 / RFU, TTC7A / Fold change vs veh, TTC7A / RFU, TMEM135 / Fold change vs veh, TMEM135 / RFU, DEPTOR / Fold change vs veh, DEPTOR / RFU, CPM / Fold change vs veh, CPM / RFU, DNAJB6 / Fold change vs veh, DNAJB6 / RFU, CACNA2D3 / Fold change vs veh, CACNA2D3 / RFU, DTX4 / Fold change vs veh, DTX4 / RFU, TFCP2 / Fold change vs veh, TFCP2 / RFU, GMCL1 /// GMCL1P1 / Fold change vs veh, GMCL1 /// GMCL1P1 / RFU, AEBP2 / Fold change vs veh, AEBP2 / RFU, SNHG1 /// SNORD22 /// SNORD25 /// SNORD26 /// SNORD27 /// SNORD28 /// SNORD29 /// SNORD31 / Fold change vs veh, SNHG1 /// SNORD22 /// SNORD25 /// SNORD26 /// SNORD27 /// SNORD28 /// SNORD29 /// SNORD31 / Fold change (Aza/veh), C12orf56 (ProbeSet 11735607_a_at) / Fold change (ACY-1035/veh), C12orf56 (ProbeSet 11735607_a_at) / Fold change (Aza/veh), FGFR1OP (ProbeSet 11751329_s_at) / Fold change (ACY-1035/veh), FGFR1OP (ProbeSet 11751329_s_at) / Fold change (Aza/veh), VPS36 (ProbeSet 11739960_a_at) / Fold change (ACY-1035/veh), VPS36 (ProbeSet 11739960_a_at) / RFU SYPL1 (11715823_x_at) / Fold change /veh SYPL1 (11715823_x_at) / RFU IGFBP7 (11715501_s_at) / Fold change /veh IGFBP7 (11715501_s_at) / RFU REEP3 (11722064_at) / Fold change /veh REEP3 (11722064_at) / RFU IGLL1 (11728026_x_at) / Fold change /veh IGLL1 (11728026_x_at): dose or concentration left out as unconfirmed
Conditions: ProbeSet 11725141_a_at; LIST B

For `Nc1ncn([C@@H]2O[C@H](CO)[C@@H](O)[C@H]2O)c(=O)n1` [azacitidine], the “RFU, FUBP3” value was 470.91 RFU.
